Data: publication PMC3907537, “Evaluation of the Endothelin Receptor Antagonists Ambrisentan, Bosentan, Macitentan, and Sitaxsentan as Hepatobiliary Transporter Inhibitors and Substrates in Sandwich-Cultured Human Hepatocytes” (PLoS ONE, 2014)

Test system: sandwich-cultured human hepatocytes
Assay: ERA effect on hepatobiliary disposition of d8-taurocholate (B-CLEAR sandwich culture)
Format: cell-based
Conditions: 100 µM control inhibitor
Method: Sandwich-cultured human hepatocytes were obtained from Celsis/IVT (Baltimore, MD) or Life Technologies (Durham, NC). Donors were male (n = 3) and female (n = 1) between the ages of 31 and 62 years old. Hepatic uptake, biliary excretion and in vitro biliary clearance (Clb) were determined using the B-CLEAR® hepatocyte sandwich culture model as described by Liu et al., 1999 [34]. In this system, hepatocytes form functional bile canalicular networks while maintaining the expression and function of key uptake and efflux transporters. The canalicular system of bile pockets remains separate from the cellular culture media due to tight junctions between cells. The integrity of these tight junctions is maintained in the presence of calcium (Plus (+) buffer) while in the absence of calcium (Minus (−) buffer), these tight junctions open and release the contents of the canalicular network into the media.
A dose solution containing 2.5 µM d8-taurocholic acid (d8-TCA) was prepared in Plus (+) Buffer. Co-incubation solutions were prepared by combining d8-TCA dose solution and ERA or rifamycin-SV. Hepatocytes were washed and then conditioned for 10 min in warm Plus (+) or Minus (−) buffer with and without ERA or rifamycin-SV. Pre-incubation solutions were then removed and replaced with dose or co-incubation solutions and incubated for 10 min at 37°C. Following this 10 minute incubation, the dose or co-incubation solutions were removed and the cells were then washed three times with ice-cold Plus (+) buffer. The plates were then frozen at −80°C until processed for bioanalysis.
Study samples were stored in their original 24-well plates at −80°C until prepared for analysis. A volume of 500 µL of cell lysis solution (70∶30 methanol:water) containing 25 nM internal standard was added to each well and mixed for 20 min of mixing. The volume in each well was then transferred to a 96-well filter plate stacked on a Greiner deep well collection plate. The filter plate/collection plate was then centrifuged at 2000 rcf for 5 min. The filtrate was then evaporated to dryness under nitrogen. Samples were reconstituted in 200 µL of sample diluent (60∶40 methanol:10 mM ammonium acetate, native pH), sealed, and placed on a plate shaker for 15 min. These samples were then transferred to a Whatman 96-well 0.45 µm PVDF filter plate stacked on a Costar 3956 plate (HPLC injection plate), centrifuged at 2000 rcf for 2–3 min, and sealed with a silicon cap mat prior to LC-MS/MS analysis. d8-TCA standard spiking solutions were prepared in 50∶50 methanol:water. For a given lysate standard or control, 10 µL was added to each well of a previously frozen analytical plate. Standards representing 0.5–100 pmoles/well and QC’s at the LLQ and ULQ were prepared. These lysate standards and controls were then further processed as described above for unknown study samples. Prepared samples were filtered and analyzed by LC-MS/MS using a Shimadzu binary HPLC system (Columbia, MD) and tandem mass spectrometry using Thermo Electron TSQ® Quantum Discovery MAX™ (Waltham, MA) with an Ion Max ESI source operating in negative ion electrospray ionization mode. Results for unknowns and QCs were calculated using a standard curve based on an internal standard processing method.
Data calculations were performed using Microsoft Excel, 2010 with all values reported as mean ± standard deviation (SD). Statistical comparisons across ERA treatments were performed using analysis of variance (ANOVA) with Fisher’s PLSD post hoc analysis (Statview 5.0, SAS Institute, Cary NC); statistical significance was considered to be P<0.05. All mass values were normalized to mg protein by taking the average protein mass in the taurocholate plate determined using a BCA protein assay (Pierce Biotechnology, Rockford, IL). Cellular accumulation determined in Minus (−) buffer (Accumulation Minus (−) Buffer) represents the total mass of analyte inside the hepatocyte at the end of the incubation time period. […]

Structure (SMILES): CO[C@H]1/C=C/O[C@@]2(C)Oc3c(C)c(O)c4c(O)c(cc(O)c4c3C2=O)NC(=O)/C(C)=C\C=C\[C@H](C)[C@H](O)[C@@H](C)[C@@H](O)[C@@H](C)[C@H](OC(C)=O)[C@@H]1C [rifamycin-SV]
- d8-TCA Clb in the presence of control inhibitor (untreated control 19.9±7.8): 4.5 ± 2.1 mL/min/kg
- d8-TCA BEI in the presence of control inhibitor (untreated control 74.7%): 57.1%
